# Source: patent US7300946B2, “N-(substituted arylmethyl)-4-(disubstituted methyl) piperidines and pyridines” (Bayer CropScience AG, priority 2002, dated 2007)
# System: tobacco budworm (Heliothis virescens [Fabricius])
# Assay: surface-treated diet test against the tobacco budworm
# Assay type: in vivo
# Settings: tobacco budworm second instar larvae, 0.25 millimoles of candidate insecticide on the surface of the diet, five-day exposure; for Percent Mortality: compared to total number of insects infested; for Percent Growth Inhibition: inhibition of insect weight relative to untreated controls
# Procedure, shortened: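 Wheat germ artificial diet surface-treated with 40 µL of 50 mM DMSO stock diluted 1:7 in 1:1 water/acetone (0.25 millimolar on diet), or sub-multiples for rate tests. One second-instar larva per well, 25° C, 60% RH, 5 days; percent weight inhibition vs DMSO controls and percent mortality.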
Structure (SMILES),Percent Mortality (surface-treated diet) [%],Percent Growth Inhibition (surface-treated diet) [%],Percent Mortality [%],Percent Growth Inhibition [%]
O=C(NCc1ccc(F)cc1)OC(c1ccc(C(F)(F)F)cc1)C1CCN(Cc2ccc(Oc3ccccn3)cc2)CC1 (stereo not drawn) [Compound 676],100,100,,
O=C(Nc1ccc(I)cc1)OC(c1ccc(C(F)(F)F)cc1)C1CCN(Cc2ccc(Oc3ccccn3)cc2)CC1 (stereo not drawn) [Compound 677],100,100,,
O=C(NCc1ccc(Cl)cc1Cl)OC(c1ccc(C(F)(F)F)cc1)C1CCN(Cc2ccc(Oc3ccccn3)cc2)CC1 (stereo not drawn) [Compound 678],100,100,,
O=C(Nc1ccc(F)cc1F)OC(c1ccc(C(F)(F)F)cc1)C1CCN(Cc2ccc(Oc3ccccn3)cc2)CC1 (stereo not drawn) [Compound 679],100,100,,
O=C(Nc1cc(F)cc(F)c1)OC(c1ccc(C(F)(F)F)cc1)C1CCN(Cc2ccc(Oc3ccccn3)cc2)CC1 (stereo not drawn) [Compound 680],17,100,,
Fc1cc(F)cc(NC(=S)OC(c2ccc(C(F)(F)F)cc2)C2CCN(Cc3ccc(Oc4ccccn4)cc3)CC2)c1 (stereo not drawn) [Compound 681],100,100,,
O=C(Nc1cc(F)cc(F)c1)OC(c1ccc(C(F)(F)F)cc1)C1CCN(Cc2ccc(Oc3cccc[n+]3[O-])cc2)CC1 (stereo not drawn) [Compound 682],100,100,,
O=C(Nc1cc(F)cc(F)c1)OC(c1ccc(C(F)(F)F)cc1)C1CCN(Cc2ccc(Oc3ncccc3Cl)cc2)CC1 (stereo not drawn) [Compound 683],100,100,,
O=C(Nc1cc(F)cc(F)c1)OC(c1ccc(C(F)(F)F)cc1)C1CCN(Cc2ccc(Oc3ccc(Cl)cn3)cc2)CC1 (stereo not drawn) [Compound 684],100,100,,
O=C(Nc1cc(F)cc(F)c1)OC(c1ccc(C(F)(F)F)cc1)C1CCN(Cc2ccc(Oc3cccc(Cl)n3)cc2)CC1 (stereo not drawn) [Compound 685],100,100,,
O=C(Nc1cc(F)cc(F)c1)OC(c1ccc(C(F)(F)F)cc1)C1CCN(Cc2ccc(Oc3ncc(Cl)cc3Cl)cc2)CC1 (stereo not drawn) [Compound 686],17,98,,
N#Cc1cccnc1Oc1ccc(CN2CCC(C(OC(=O)Nc3cc(F)cc(F)c3)c3ccc(C(F)(F)F)cc3)CC2)cc1 (stereo not drawn) [Compound 687],100,100,,
N#Cc1ccc(Oc2ccc(CN3CCC(C(OC(=O)Nc4cc(F)cc(F)c4)c4ccc(C(F)(F)F)cc4)CC3)cc2)nc1 (stereo not drawn) [Compound 688],100,100,,
O=C(Nc1cc(F)cc(F)c1)OC(c1ccc(C(F)(F)F)cc1)C1CCN(Cc2ccc(Oc3ncccc3C(F)(F)F)cc2)CC1 (stereo not drawn) [Compound 689],100,100,,
O=C(Nc1cc(F)cc(F)c1)OC(c1ccc(C(F)(F)F)cc1)C1CCN(Cc2ccc(Oc3cc(C(F)(F)F)ccn3)cc2)CC1 (stereo not drawn) [Compound 690],100,100,,
O=C(Nc1cc(F)cc(F)c1)OC(c1ccc(C(F)(F)F)cc1)C1CCN(Cc2ccc(Oc3ccc(C(F)(F)F)cn3)cc2)CC1 (stereo not drawn) [Compound 691],100,100,,
FC(F)(F)c1ccc(C(OC(=S)Nc2cccc(C(F)(F)F)c2)C2CCN(Cc3ccc(Oc4ccccn4)cc3)CC2)cc1 (stereo not drawn) [Compound 692],100,100,,
FC(F)(F)c1ccc(NC(=S)OC(c2ccc(C(F)(F)F)cc2)C2CCN(Cc3ccc(Oc4ccccn4)cc3)CC2)cc1 (stereo not drawn) [Compound 693],100,100,,
Cc1cccc(CNC(=O)OC(c2ccc(C(F)(F)F)cc2)C2CCN(Cc3ccc(Oc4ccccn4)cc3)CC2)c1 (stereo not drawn) [Compound 694],50,100,,
Cc1ccc(CNC(=O)OC(c2ccc(C(F)(F)F)cc2)C2CCN(Cc3ccc(Oc4ccccn4)cc3)CC2)cc1 (stereo not drawn) [Compound 695],100,100,,
Cc1ccc(S(=O)(=O)NC(=O)OC(c2ccc(C(F)(F)F)cc2)C2CCN(Cc3ccc(Oc4ccccn4)cc3)CC2)cc1 (stereo not drawn) [Compound 696],0,32,,

Structure (SMILES),Percent Mortality (surface-treated diet) [%],Percent Growth Inhibition (surface-treated diet) [%],Percent Mortality [%],Percent Growth Inhibition [%]
O=C(Nc1cc(F)c(F)c(F)c1)OC(c1ccc(C(F)(F)F)cc1)C1CCN(Cc2ccc(Oc3ccccn3)cc2)CC1 (stereo not drawn) [Compound 697],100,100,,
COc1ccc(CNC(=O)OC(c2ccc(C(F)(F)F)cc2)C2CCN(Cc3ccc(Oc4ccccn4)cc3)CC2)cc1 (stereo not drawn) [Compound 698],100,100,,
COc1ccc(NC(=O)OC(c2ccc(C(F)(F)F)cc2)C2CCN(Cc3ccc(Oc4ccccn4)cc3)CC2)cc1Cl (stereo not drawn) [Compound 699],100,100,,
COc1ccc(NC(=O)OC(c2ccc(C(F)(F)F)cc2)C2CCN(Cc3ccc(Oc4ccccn4)cc3)CC2)cc1F (stereo not drawn) [Compound 700],100,100,,
O=C(Nc1ccc(OC(F)F)cc1)OC(c1ccc(C(F)(F)F)cc1)C1CCN(Cc2ccc(Oc3ccccn3)cc2)CC1 (stereo not drawn) [Compound 701],,,100,100
CSc1ccc(NC(=O)OC(c2ccc(C(F)(F)F)cc2)C2CCN(Cc3ccc(Oc4ccccn4)cc3)CC2)cc1 (stereo not drawn) [Compound 702],,,100,100
O=C(Nc1ccc(SC(F)(F)F)cc1)OC(c1ccc(C(F)(F)F)cc1)C1CCN(Cc2ccc(Oc3ccccn3)cc2)CC1 (stereo not drawn) [Compound 703],,,100,100
N#Cc1ccc(NC(=O)OC(c2ccc(C(F)(F)F)cc2)C2CCN(Cc3ccc(Oc4ccccn4)cc3)CC2)cc1 (stereo not drawn) [Compound 704],,,100,100
CC(=O)c1ccc(NC(=O)OC(c2ccc(C(F)(F)F)cc2)C2CCN(Cc3ccc(Oc4ccccn4)cc3)CC2)cc1 (stereo not drawn) [Compound 705],,,17,100
O=C(Nc1ccc(Cl)cc1)OC(c1ccc(OC(F)(F)F)cc1)C1CCN(Cc2ccc(Oc3cccc[n+]3[O-])cc2)CC1 (stereo not drawn) [Compound 706],,,100,100
N#Cc1cccnc1Oc1ccc(CN2CCC(C(OC(=O)Nc3ccc(Cl)cc3)c3ccc(OC(F)(F)F)cc3)CC2)cc1 (stereo not drawn) [Compound 707],,,100,100
N#Cc1ccc(Oc2ccc(CN3CCC(C(OC(=O)Nc4ccc(Cl)cc4)c4ccc(OC(F)(F)F)cc4)CC3)cc2)nc1 (stereo not drawn) [Compound 708],,,100,100
O=C(Nc1cc(F)cc(F)c1)OC(c1ccc(OC(F)(F)F)cc1)C1CCN(Cc2ccc(Oc3cccc[n+]3[O-])cc2)CC1 (stereo not drawn) [Compound 709],,,100,100
N#Cc1cccnc1Oc1ccc(CN2CCC(C(OC(=O)Nc3cc(F)cc(F)c3)c3ccc(OC(F)(F)F)cc3)CC2)cc1 (stereo not drawn) [Compound 710],,,100,100
N#Cc1ccc(Oc2ccc(CN3CCC(C(OC(=O)Nc4cc(F)cc(F)c4)c4ccc(OC(F)(F)F)cc4)CC3)cc2)nc1 (stereo not drawn) [Compound 711],,,100,100
O=C(Nc1ccc(Cl)cc1)OC(c1ccc(Cl)cc1)C1CCN(Cc2ccc(Oc3ncccn3)cc2)CC1 (stereo not drawn) [Compound 712],,,100,100
O=C(Nc1cccc(F)c1)OC(c1ccc(Cl)cc1)C1CCN(Cc2ccc(Oc3ncccn3)cc2)CC1 (stereo not drawn) [Compound 713],,,100,100
O=C(Nc1cc(F)cc(F)c1)OC(c1ccc(Cl)cc1)C1CCN(Cc2ccc(Oc3ncccn3)cc2)CC1 (stereo not drawn) [Compound 714],,,100,100
O=C(Nc1ccc(Cl)cc1)OC(c1ccc(F)cc1)C1CCN(Cc2ccc(Oc3ncccn3)cc2)CC1 (stereo not drawn) [Compound 715],,,100,100
O=C(Nc1cccc(F)c1)OC(c1ccc(F)cc1)C1CCN(Cc2ccc(Oc3ncccn3)cc2)CC1 (stereo not drawn) [Compound 716],,,100,100
O=C(Nc1cc(F)cc(F)c1)OC(c1ccc(F)cc1)C1CCN(Cc2ccc(Oc3ncccn3)cc2)CC1 (stereo not drawn) [Compound 717],,,100,100
